According to patent US20090286750A1, “USE OF RIBOSE IN LESSENING THE CLINICAL SYMPTOMS OF ABERRANT FIRING OF NEURONS” (priority 2008, published 2009):
Like-named read-outs stand apart in the source and are kept apart here.

Key:
[1] = Serum D-Ribose levels and half life after infusion or oral administration; type: in vivo, human
Description: D-Ribose is found at low levels in the diet and normal serum levels are approximately 2 mg/dl. […] When infused for short periods at the concentrations of 60 mg/kg and 100 mg/kg, D-Ribose levels in the serum rose, in each case, to approximately 25 mg/dl. These doses of D-Ribose, for a 60 kilogram man, are 3.6 and 5 grams, respectively. Doses for larger or smaller size humans can be calculated based on their mass, and are typically 1 to 10 grams. […] Intravenous administration of high doses of D-Ribose can elevate the serum levels to as high as 60 mg/dl, while a further increase in dose to 222.2 mg/kg can produce a serum level as high as 86 mg/dl. See, for example, Gross et al., Klinische Wochenschrift (1991) 69:31-36.
Serum D-ribose levels should be maintained long enough to establish an effect that will persist after the serum D-ribose level is back to baseline levels. […] Typically, approximately a third of the cardiac output is used to supply energy to the brain.

[2] = test system: two familial males with RLS; assay: Restless Legs Syndrome case study, oral D-ribose at three dosing regimens; type: in vivo, human
Source text: We present a report on two familial males with RLS in which the supplementation of D-ribose produced a benefit in lessening the occurrence and severity of their daily symptoms. Both affected male individuals were from a positive family prevalence, three generations carrying the diagnosis of RLS. These males involved the latter two generations, parent and child, respectively. Both men had no underlying medical conditions. Their symptoms of RLS date back for decades and presently have progressed to the moderate to severe discomfort stage, mainly experienced during sedentary periods throughout the day with exacerbation of symptoms during nocturnal sleep. Both individuals were introduced to D-ribose. To evaluate any potential benefits of D-ribose in RLS, each individual orally consumed D-ribose (five grams per dose) daily at different trial dosing regimens. Each trial dosing regimen lasted for three weeks with a two week interval washout between dosing regimens. The initial regimen involved a single dose of oral D-ribose consumed only at breakfast. The second dosing regimen involved consumption of oral D-ribose at breakfast and lunch. In the last dosing regiment, oral D-ribose was taken with all meals, breakfast, lunch and dinner. A diary pertaining to the documentation and severity of RLS symptoms was compiled. The two week washout period between stages was designed to observe any return or worsening of their symptoms. […] Following completion of all dosing regimens of oral D-ribose and with the final wash out period, both males elected to re-start oral dosing of D-ribose at 5 grams/doses three times a day.

[3] = cited from earlier work
[4] = regardless of the measured serum level of D-Ribose; cited from earlier work
[5] = test system: two familial males with RLS; details: oral dosage below eight grams at a time, no more often than every two hours; cited from earlier work
[6] = oral 5 g at breakfast and lunch, three weeks
[7] = oral 5 g at breakfast, lunch and dinner, three weeks
[8] = oral 5 g, single dose at breakfast, three weeks

O=C[C@H](O)[C@H](O)[C@H](O)CO [D-Ribose]
time for serum D-Ribose levels to drop to near baseline of two mg/dl ([1]; at a 15 minute half life): within an hour
half-life ([1]; human, serum, assumed from the above oral pharmacokinetic information): 15 min
washout complete after ceasing D-ribose supplementation ([2]; RLS study): 48 h
leg twitching events and urge to move during the day [2, 6]: reduced for one of the subjects and rarely present in the other
nocturnal symptoms [2, 6]: still experienced the unpleasant sensations during the night
diurnal symptoms [2, 7]: total elimination
nocturnal symptoms [2, 7]: of a much lesser degree and had a later occurrence
general feeling (energy, fatigue) [2, 8]: more energy and less fatigue
symptoms of RLS [2, 8]: without any significant changes
adverse reactions ([2]; oral 5 grams/dose three times a day): without any adverse reactions
severity and onset of symptoms affecting quality of life ([2]; re-started oral 5 grams/dose three times a day): substantially improved
time to return of clinical RLS symptoms after cessation of oral D-ribose ([2]; washout period): ≤ 48 h
normal serum levels of D-Ribose ([3]; baseline, from diet): approximately 2 mg/dl
D-Ribose level in the serum ([3]; infused for short periods at 60 mg/kg): approximately 25 mg/dl
D-Ribose level in the serum ([3]; infused for short periods at 100 mg/kg): approximately 25 mg/dl
half life of D-Ribose in the serum ([3]; infusion 60 mg/kg): 11 min
half life of D-Ribose in the serum ([3]; infusion 100 mg/kg): 16 min
serum D-Ribose level ([3]; intravenous administration of high doses): ≤ 60 mg/dL
serum D-Ribose level ([3]; intravenous, further increase in dose to 222.2 mg/kg): ≤ 86 mg/dL
serum D-Ribose level ([3]; oral, four hours of 83.2 mg/kg per hour): 29.25 mg/dL
serum D-Ribose level ([3]; oral, four hours of 166.7 mg/kg per hour): 35 mg/dL
decline in serum glucose, ultimate lower level [4]: 25%
side effects [5]: no side effects
